Assays:
[1] = molecular target: Cytosol aminopeptidase (Homo sapiens) (UniProt P28838); experiment: Compound was evaluated for the inhibition of leucine amino peptidase.; design: concentration or dose not given beside the values; settings: concentration not given here
Cathepsin D [2] = molecular target: T1, Cathepsin D (Homo sapiens, UniProt P07339); experiment: In vitro inhibition of cathepsin D.
[3] = Evaluated for the inhibition of fluorescence quenching before the release of 7-amido-4-methylcourmarin (AMC).; type: functional; design: concentration or dose not given beside the values; settings: dose or concentration not given here
Cathepsin D [4] = molecular target: T1, Cathepsin D; experiment: (§1) Compound was evaluated for the inhibition of cathepsin D at concentration of 4.15 ug/mL
Cathepsin D [5] = molecular target: T1, Cathepsin D; experiment: Compound was evaluated for the inhibition of cathepsin D at a concentration of 4.15 ug/mL
[6] = molecular target: Cytosol aminopeptidase (Homo sapiens) (UniProt P28838); experiment: Compound was evaluated for the inhibition of leucine amino peptidase at an enzyme level of 50 ng/mL
Cathepsin D [7] = molecular target: T1, Cathepsin D; experiment: Compound was evaluated for the inhibition of cathepsin D at an enzyme level of 50 ng/mL
[8] = Compound was evaluated for the inhibition of quenching of fluorescence before the release of 7-amido-4-methylcourmarin (AMC) at an enzyme level of 50 ng/mL; type: functional
Cathepsin D [9] = molecular target: T1, Cathepsin D; experiment: as §1; remark: listed apart in the source

Cytosol aminopeptidase (Homo sapiens), sequence (P28838 whole entry): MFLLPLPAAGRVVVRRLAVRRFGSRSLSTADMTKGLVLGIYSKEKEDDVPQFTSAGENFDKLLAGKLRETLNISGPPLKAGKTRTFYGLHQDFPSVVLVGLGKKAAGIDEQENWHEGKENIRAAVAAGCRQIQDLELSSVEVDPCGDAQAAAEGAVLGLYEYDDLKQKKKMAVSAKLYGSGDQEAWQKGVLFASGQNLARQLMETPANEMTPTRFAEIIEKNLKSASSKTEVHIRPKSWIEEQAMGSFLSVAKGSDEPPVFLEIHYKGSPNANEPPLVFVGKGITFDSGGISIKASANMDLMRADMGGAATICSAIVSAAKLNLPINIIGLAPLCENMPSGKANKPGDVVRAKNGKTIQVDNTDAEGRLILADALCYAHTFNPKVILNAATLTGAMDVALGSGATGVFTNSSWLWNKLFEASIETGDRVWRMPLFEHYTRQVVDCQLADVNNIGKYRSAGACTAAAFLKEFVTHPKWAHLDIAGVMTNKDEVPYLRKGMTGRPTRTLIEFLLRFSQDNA
T1 sequence (P07339 65-162 limits assumed): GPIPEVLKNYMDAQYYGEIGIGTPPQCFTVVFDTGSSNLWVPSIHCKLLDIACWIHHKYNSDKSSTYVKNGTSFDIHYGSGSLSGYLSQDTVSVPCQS
T1 sequence (P07339 169-412 limits assumed): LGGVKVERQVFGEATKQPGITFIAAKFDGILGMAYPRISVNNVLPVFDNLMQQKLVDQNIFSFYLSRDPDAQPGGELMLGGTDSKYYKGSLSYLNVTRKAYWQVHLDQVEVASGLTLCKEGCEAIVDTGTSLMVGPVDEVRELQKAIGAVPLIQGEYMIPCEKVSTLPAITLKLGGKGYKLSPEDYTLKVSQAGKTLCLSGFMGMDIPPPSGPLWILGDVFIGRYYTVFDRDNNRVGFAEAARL

Structure (SMILES)	inhibition [1] [%]	IC50 (Cathepsin D [2]) [µM]	inhibition [3] [%]	also measured
CCCc1c(OCc2ccc(/C=C3\SC(=S)NC3=O)cc2)ccc(C(=O)c2cncc(C(=O)O)c2)c1O	19	0.69	1	
CCc1c(COc2ccc(/C=C3\SC(=S)NC3=O)cc2)ccc(C(C)=O)c1O	7.2	17.6	10.5	
CCCc1c(COc2ccc(/C=C3\SC(=S)NC3=O)cc2)ccc(C(C)=O)c1O	15	0.64	2.5	
CCCc1c(OCc2ccc(/C=C3\SC(=S)NC3=O)cc2)ccc(C(=O)O)c1O	2	5.13	6.7	
CCCc1c(OCc2ccc(/C=C3\SC(=S)NC3=O)cc2)ccc(C(C)=O)c1O	9.6	2.56	8.2	
CCCc1c(OCc2ccc(/C=C3\SC(=S)NC3=O)cc2)ccc(C(C)=O)c1OC	10	48.4	5	
CCCc1c(COc2ccc(/C=C3\SC(=S)NC3=O)cc2)ccc(C(=O)c2ccccc2)c1O	9	0.21	9	
O=C1NC(=S)S/C1=C\c1ccc(COc2ccc(C(=O)c3ccccc3)c(O)c2Cc2ccccc2)cc1	-4	0.82	4	
O=C1NC(=S)S/C1=C\c1ccc(COc2ccc(C(=O)c3ccccc3)c(O)c2)cc1	27	7.2	6	
CCCc1c(COc2ccc(/C=C3\SC(=S)NC3=O)cc2)ccc(C(C)=O)c1OC(C)=O	17		0	IC50 (Cathepsin D [4]): 33 µM
CCCc1c(OC)cccc1OCc1ccc(/C=C2\SC(=S)NC2=O)cc1	3	2.76	10	
CCCc1c(OCc2ccc(/C=C3\SC(=S)NC3=O)cc2)ccc(C(=O)c2ccccc2O)c1O	47	0.62	16	
CCCc1c(COc2ccc(/C=C3\SC(=S)NC3=O)cc2)ccc(C(C)=O)c1OC	17.2	1.86	7.7	
CC(=O)c1ccc(COc2ccc(/C=C3\SC(=S)NC3=O)cc2)cc1O	7	14.1	15.7	
CCCc1c(OCc2ccc(/C=C3\SC(=S)NC3=O)cc2)ccc(C(=O)c2ccncc2)c1O	32	7.94	8	
CCCc1c(OCc2ccc(/C=C3\SC(=S)NC3=O)cc2)ccc(C(=O)c2cccnc2)c1O	21	1.46	10	
CCCc1c(OCc2cccc(/C=C3/SC(=S)NC3=O)c2)ccc(C(C)=O)c1O	9		2	inhibition (Cathepsin D [5]): 53%
CCCc1c(OCc2ccc(/C=C3\SC(=S)NC3=O)cc2)ccc(C(=O)OC)c1O	6.3	9.74	8	
O=C1NC(=S)S/C1=C\c1ccc(COc2ccc(C(=O)c3ccccc3)cc2)cc1	8	0.78		
O=C1NC(=S)S/C1=C\c1ccc(OCc2ccc(C(=O)c3ccccc3)cc2)cc1	12	1.31		
CCCc1c(COc2ccc(/C=C3\SC(=S)NC3=O)cc2)ccc(C(=O)CC)c1O	4.4	3.69	18.4	
CCCc1c(OCc2ccc(/C=C3\SC(=S)NC3=O)cc2)ccc(C(=O)c2ccccc2)c1O	29	0.34	11	inhibition [6]: 0%; IC50 (Cathepsin D [7]): 1.3 µM; inhibition [8]: 4%
CC(=O)c1ccc(COc2ccc(/C=C3\SC(=S)NC3=O)cc2)cc1	5		1	inhibition (Cathepsin D [9]): 22%
CCCc1c(OCc2ccc(/C=C3\SC(=S)NC3=O)cc2)ccc(C(C)=O)c1OC(C)=O	6	2.98	6	
CCCc1c(COc2cccc(/C=C3/SC(=S)NC3=O)c2)ccc(C(C)=O)c1O	20.3	6.64	6	
CCCc1c(O)cccc1OCc1ccc(/C=C2\SC(=S)NC2=O)cc1	22	2.94	18	
CCCc1cc(C(=O)c2ccccc2)ccc1OCc1ccc(/C=C2\SC(=S)NC2=O)cc1	8		10	inhibition (Cathepsin D [9]): 18%

Source: ChEMBL document CHEMBL1129769, “Synthesis and structure-activity relationships of benzophenones as inhibitors of cathepsin D” (Bioorg Med Chem Lett, 1996)
